Reference: patent US9850283B2, “Macrocyclic inhibitors of the PD-1/PD-L1 and CD80(B7-1)/PD-L1 protein/protein interactions” (BRISTOL-MYERS SQUIBB COMPANY, priority 2013, dated 2017)
Read-outs that look alike come from different tables or passages of the source. Starred links: 1 amine or outer side, 2 acyl side, 3 side chain; linkers in the order of their positions; H or OH if unused. Positions of bridges follow the written chain, without caps; N, C: chain ends. Non-standard residues stand in square brackets, D forms with d. Residues, ends and D or L forms follow the SMILES beside them. ξ: configuration not given here. X5 = CCCOc1ccc(-c2[nH]c3ccccc3c2C[C@H](N[*:1])C(=O)[*:2])cc1; X6 = O=C([C@H](Cc1c(-c2ccc(F)cc2)[nH]c2ccccc12)N[*:1])[*:2]; Phe(3,4-Cl2) = N[C@@H](Cc1ccc(Cl)c(Cl)c1)C(=O)O; Pro(4R-Bn) = O=C(O)[C@@H]1C[C@@H](Cc2ccccc2)CN1; pY = N[C@@H](Cc1ccc(OP(=O)(O)O)cc1)C(=O)O; Pro(4R-NH2) = N[C@H]1CN[C@H](C(=O)O)C1; 1Nal = N[C@@H](Cc1cccc2ccccc12)C(=O)O; Bta = N[C@@H](Cc1csc2ccccc12)C(=O)O; hhPhe = N[C@@H](CCCc1ccccc1)C(=O)O; Hyp = O=C(O)[C@@H]1C[C@@H](O)CN1; NMeF = CN[C@@H](Cc1ccccc1)C(=O)O; NMeNle = CCCC[C@H](NC)C(=O)O; ξR = N=C(N)NCCCC(N)C(=O)O; NMeA = CN[C@@H](C)C(=O)O; Orn = NCCC[C@H](N)C(=O)O; Dap = NC[C@H](N)C(=O)O; Sar = CNCC(=O)O

Assays:
[1] = target: T1, LK35.2-hPD-L1 cells / PE-labeled PD-1-Ig (Homo sapiens, UniProt Q9NZQ7); assay: LK35.2-hPD-L1 cell binding high-content screening assay; format: cell-based
T1 construct: expressed in transfected cells; host or cells: LK35.2 mouse B cell line
Procedure, shortened: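 Mouse LK35.2 B cells stably over-expressing human PD-L1, cultured overnight, treated with compound plus PE-labeled human PD-1-Ig (1 nM final) in RPMI/10% FCS for 1 h at 37 °C. After washing, bound fluorescence quantified by high-content imaging.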

Human PD-L1/PD-1 = target: T2, Human PD-L1/PD-1 (Homo sapiens, UniProt Q9NZQ7); assay: HTRF PD-1-Ig/PD-L1-His binding assay (human PD-L1)
T2 construct: made in house; host or cells: HEK293T
Procedure, shortened: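 HTRF read-out: Eu cryptate anti-Ig mAb 1 nM final, APC anti-His mAb 20 nM final, added over the binding reaction. Proteins were PD-1-Ig and PD-L1-His ectodomain fusions. Buffer was dPBS, 0.1% BSA, 0.05% Tween-20.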

[2] = cell binding assay, cell line not given, cluster symbol, read-out: CBA IC50 cluster
[3] = cluster symbol, read-out: HTRF IC50 cluster
[4] = cluster symbol, cell line of CBA not given (LK35.2-hPD-L1 or 293T-hPD-L1), read-out: CBA IC50 cluster

T2 sequence (Q9NZQ7 with tags, fused parts or gaps): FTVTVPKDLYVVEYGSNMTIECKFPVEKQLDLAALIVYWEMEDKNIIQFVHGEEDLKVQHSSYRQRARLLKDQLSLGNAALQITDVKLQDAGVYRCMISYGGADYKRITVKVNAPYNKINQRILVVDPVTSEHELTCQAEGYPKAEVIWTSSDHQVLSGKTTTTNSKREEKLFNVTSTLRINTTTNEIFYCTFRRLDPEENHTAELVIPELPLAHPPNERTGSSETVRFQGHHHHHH
T1 sequence (Q9NZQ7 19-290): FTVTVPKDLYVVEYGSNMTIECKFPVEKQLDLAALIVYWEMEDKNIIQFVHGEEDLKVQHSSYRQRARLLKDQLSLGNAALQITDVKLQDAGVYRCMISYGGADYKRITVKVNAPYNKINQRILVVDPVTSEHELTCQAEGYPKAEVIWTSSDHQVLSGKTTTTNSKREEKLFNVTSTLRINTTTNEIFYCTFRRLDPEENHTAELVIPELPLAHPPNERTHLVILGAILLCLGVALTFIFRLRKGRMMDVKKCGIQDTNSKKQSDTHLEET

| SMILES | IC50 [1, 2] | IC50 (Human PD-L1/PD-1; [3]) | IC50 [1, 4] | further results |
| --- | --- | --- | --- | --- |
| CCCC[C@H]1C(=O)N(C)[C@@H](CCCC)C(=O)N[C@@H](CCCCN)C(=O)N[C@H](C(=O)NCC(N)=O)CSCC(=O)N[C@@H](Cc2ccc(O)cc2)C(=O)N(C)[C@@H](C)C(=O)N[C@@H](CC(N)=O)C(=O)N2CCC[C@H]2C(=O)N[C@@H](Cc2c[nH]cn2)C(=O)N[C@@H](CCC(=O)O)C(=O)N2C[C@H](O)C[C@H]2C(=O)N[C@@H](Cc2c[nH]c3ccccc23)C(=O)N[C@@H](CO)C(=O)N[C@@H](Cc2c[nH]c3ccccc23)C(=O)N1C [Example 5139] ({CH2CO}-Y[NMeA]NPHE[Hyp]WSW[NMeNle][NMeNle]KCG-NH2; thioether N-14) | 0.158 to 4.71 nM | 0.385 to 6.74 nM | – | – |
| CCCC[C@H]1C(=O)N(C)[C@@H](CCCC)C(=O)NC(CCCNC(=N)N)C(=O)N[C@H](C(=O)NCC(N)=O)CSCC(=O)N[C@@H](Cc2ccc(O)cc2)C(=O)N(C)[C@@H](C)C(=O)N[C@@H](CC(N)=O)C(=O)N2CCC[C@H]2C(=O)N[C@@H](CN)C(=O)N[C@@H](CC(C)C)C(=O)N2C[C@H](O)C[C@H]2C(=O)N[C@@H](Cc2c[nH]c3ccccc23)C(=O)N[C@@H](CO)C(=O)N[C@@H](Cc2c(-c3ccc(F)cc3)[nH]c3ccccc23)C(=O)N1C (some centres unmarked) [Example 7002] ({CH2CO}-Y[NMeA]NP[Dap]L[Hyp]WS[X6][NMeNle][NMeNle][ξR]CG-NH2; thioether N-14) | 0.158 to 4.71 nM | 0.385 to 6.74 nM | – | – |
| CCCC[C@H]1C(=O)N(C)CC(=O)N[C@@H](CC(=O)O)C(=O)N[C@@H](C(C)C)C(=O)N(C)[C@@H](Cc2ccccc2)C(=O)N[C@@H](Cc2ccc(O)cc2)C(=O)N(C)CC(=O)N[C@@H](Cc2c[nH]c3ccccc23)C(=O)N[C@@H](Cc2ccc(Cl)c(Cl)c2)C(=O)N[C@@H](CC(C)C)C(=O)N[C@H](C(=O)NCC(N)=O)CSCC(=O)N[C@@H](Cc2ccccc2)C(=O)N(C)[C@@H](Cc2ccccc2)C(=O)N1C [Example 3100] ({CH2CO}-F[NMeF][NMeNle][Sar]DV[NMeF]Y[Sar]W[Phe(3,4-Cl2)]LCG-NH2; thioether N-13) | – | > 30.5 nM | > 74.3 nM | – |
| CCCC[C@H]1C(=O)N(C)CC(=O)N[C@@H](CC(=O)O)C(=O)N[C@@H](C(C)C)C(=O)N(C)[C@@H](Cc2ccccc2)C(=O)N[C@@H](Cc2ccc(O)cc2)C(=O)N(C)CC(=O)N[C@@H](Cc2c[nH]c3ccccc23)C(=O)N[C@@H](Cc2ccc(O)cc2)C(=O)N[C@@H](CC(C)C)C(=O)N[C@H](C(=O)NCC(N)=O)CSCC(=O)N[C@@H](Cc2ccc(OP(=O)(O)O)cc2)C(=O)N(C)[C@@H](Cc2ccccc2)C(=O)N1C [Example 3066] ({CH2CO}-[pY][NMeF][NMeNle][Sar]DV[NMeF]Y[Sar]WYLCG-NH2; thioether N-13) | – | – | – | IC50 ([1]; CBA IC50 cluster, cluster symbol, cell line of CBA not given (LK35.2-hPD-L1 or 293T-hPD-L1)): > 74.3 nM; IC50 (Human PD-L1/PD-1; HTRF IC50 cluster, cluster symbol): > 30.5 nM |
| CCCC[C@H]1C(=O)N(C)[C@@H](CCCC)C(=O)NC(CCCNC(=N)N)C(=O)N[C@H](C(=O)NCC(N)=O)CSCC(=O)N[C@@H](Cc2ccc(O)cc2)C(=O)N(C)[C@@H](C)C(=O)N[C@@H](CC(N)=O)C(=O)N2CCC[C@H]2C(=O)N[C@@H](CN)C(=O)N[C@@H](CC(C)C)C(=O)N2C[C@H](O)C[C@H]2C(=O)N[C@@H](Cc2c[nH]c3ccccc23)C(=O)N[C@@H](CO)C(=O)N[C@@H](Cc2c(-c3ccc(OCCC)cc3)[nH]c3ccccc23)C(=O)N1C (some centres unmarked) [Example 7005] ({CH2CO}-Y[NMeA]NP[Dap]L[Hyp]WS[X5][NMeNle][NMeNle][ξR]CG-NH2; thioether N-14) | 4.78 to 72.9 nM | 0.385 to 6.74 nM | – | – |
| CCCC[C@H]1C(=O)N2CCC[C@@H]2C(=O)N2C[C@H](N)C[C@H]2C(=O)N[C@@H](C(C)C)C(=O)N(C)[C@@H](Cc2ccccc2)C(=O)N[C@@H](Cc2ccc(O)cc2)C(=O)N(C)CC(=O)N[C@@H](Cc2c[nH]c3ccccc23)C(=O)N[C@@H](Cc2ccc(O)cc2)C(=O)N[C@@H](CC(C)C)C(=O)N[C@H](C(=O)NCC(N)=O)CSCC(=O)N[C@@H](Cc2ccccc2)C(=O)N(C)[C@@H](Cc2ccccc2)C(=O)N1C [Example 3175] ({CH2CO}-F[NMeF][NMeNle][dP][Pro(4R-NH2)]V[NMeF]Y[Sar]WYLCG-NH2; thioether N-13) | – | 6.76 to 30.3 nM | 4.78 to 72.9 nM | – |
| CCCC[C@H]1C(=O)N(C)CC(=O)N[C@@H](CC(=O)O)C(=O)N[C@@H](C(C)C)C(=O)N(C)[C@@H](Cc2ccccc2)C(=O)N[C@@H](Cc2ccc(O)cc2)C(=O)N(C)CC(=O)N[C@@H](Cc2c[nH]c3ccccc23)C(=O)N[C@@H](Cc2ccc(O)cc2)C(=O)N[C@@H](CC(C)C)C(=O)N[C@H](C(=O)NCC(N)=O)CSCC(=O)N[C@@H](Cc2ccccc2)C(=O)N[C@@H](Cc2cccc3ccccc23)C(=O)N1C [Example 3569] ({CH2CO}-F[1Nal][NMeNle][Sar]DV[NMeF]Y[Sar]WYLCG-NH2; thioether N-13) | > 74.3 nM | > 30.5 nM | – | – |
| CCCC[C@H]1C(=O)N2CCC[C@@H]2C(=O)N[C@@H](CCCN)C(=O)N[C@H](C(=O)NCC(N)=O)CSCC(=O)N[C@@H](Cc2ccc(O)cc2)C(=O)N(C)[C@@H](C)C(=O)N[C@@H](CC(N)=O)C(=O)N2CCC[C@H]2C(=O)N[C@@H](Cc2cnc[nH]2)C(=O)N[C@@H](CC(C)C)C(=O)N2CCC[C@H]2C(=O)N[C@@H](Cc2c[nH]c3ccccc23)C(=O)N[C@@H](CO)C(=O)N[C@@H](Cc2csc3ccccc23)C(=O)N1C [Example 5010] ({CH2CO}-Y[NMeA]NPHLPWS[Bta][NMeNle][dP][Orn]CG-NH2; thioether N-14) | 4.78 to 72.9 nM | 6.76 to 30.3 nM | – | – |
| CCCC[C@H]1C(=O)N(C)[C@@H](CCCC)C(=O)N[C@@H](CCCNC(=N)N)C(=O)N[C@H](C(=O)NCC(N)=O)CSCC(=O)N[C@@H](Cc2ccc(O)cc2)C(=O)N(C)[C@@H](C)C(=O)N[C@@H](CC(N)=O)C(=O)N2CCC[C@H]2C(=O)N[C@@H](CN)C(=O)N[C@@H](CC(C)C)C(=O)N2C[C@H](O)C[C@H]2C(=O)N[C@@H](Cc2c[nH]c3ccccc23)C(=O)N[C@@H](CO)C(=O)N[C@@H](Cc2csc3ccccc23)C(=O)N1C [Example 1118] ({CH2CO}-Y[NMeA]NP[Dap]L[Hyp]WS[Bta][NMeNle][NMeNle]RCG-NH2; thioether N-14) | – | 6.76 to 30.3 nM | 0.158 to 4.71 nM | – |
| CCCC[C@H]1C(=O)N(C)CC(=O)N[C@@H](CC(=O)O)C(=O)N[C@@H](C(C)C)C(=O)N(C)[C@@H](Cc2ccccc2)C(=O)N[C@@H](Cc2ccc(O)cc2)C(=O)N(C)CC(=O)N[C@@H](Cc2c[nH]c3ccccc23)C(=O)N[C@@H](Cc2ccc(O)cc2)C(=O)N[C@@H](Cc2c[nH]cn2)C(=O)N[C@H](C(=O)NCC(N)=O)CSCC(=O)N[C@@H](Cc2ccccc2)C(=O)N(C)[C@@H](Cc2ccccc2)C(=O)N1C [Example 3165] (HELM PEPTIDE1{[O=C(C[*:3])[*:2]].F.[meF].[CCCC[C@@H](C(=O)[*:2])N(C)[*:1]].[Sar].D.V.[meF].Y.[Sar].W.Y.H.C.G.[am]}$PEPTIDE1,PEPTIDE1,1:R3-14:R3$$$V2.0) | – | 6.76 to 30.3 nM | 4.78 to 72.9 nM | – |
| CC(C)C[C@@H]1NC(=O)[C@@H](Cc2c[nH]cn2)NC(=O)[C@@H]2CCCN2C(=O)[C@@H](CC(N)=O)NC(=O)C(C)N(C)C(=O)[C@H](Cc2ccc(O)cc2)NC(=O)CSC[C@H](C(=O)NCC(N)=O)NC(=O)[C@H](C)NC(=O)[C@@H](CC(=O)O)N(C)C(=O)[C@@H](CCCCN)N(C)C(=O)[C@H](Cc2c[nH]c3ccccc23)NC(=O)[C@H](CO)NC(=O)[C@@H](Cc2c[nH]c3ccccc23)NC(=O)C2C[C@@H](O)CN2C1=O (some centres unmarked) [Example 1221] | – | > 30.5 nM | > 74.3 nM | – |
| CCCC[C@H]1C(=O)N(C)[C@@H](CCCC)C(=O)N[C@@H](CCC(=O)O)C(=O)N[C@H](C(=O)NCC(N)=O)CSCC(=O)N[C@@H](Cc2ccc(O)cc2)C(=O)N(C)[C@@H](C)C(=O)N[C@@H](CC(=O)O)C(=O)N2CCC[C@H]2C(=O)N[C@@H](Cc2c[nH]cn2)C(=O)N[C@@H](CCCCN)C(=O)N2C[C@H](Cc3ccccc3)C[C@H]2C(=O)N[C@@H](Cc2c[nH]c3ccccc23)C(=O)N[C@@H](CCCCN)C(=O)N[C@@H](Cc2c[nH]c3ccccc23)C(=O)N1C [Example 13010] ({CH2CO}-Y[NMeA]DPHK[Pro(4R-Bn)]WKW[NMeNle][NMeNle]ECG-NH2; thioether N-14) | 0.158 to 4.71 nM | 0.385 to 6.74 nM | – | – |
| CCCC[C@H]1C(=O)N(C)[C@@H](CCCC)C(=O)N[C@@H](CCCNC(=N)N)C(=O)N[C@H](C(=O)NCC(N)=O)CSCC(=O)N[C@@H](CCCc2ccccc2)C(=O)N(C)[C@@H](C)C(=O)N[C@@H](CC(N)=O)C(=O)N2CCC[C@H]2C(=O)N[C@@H](Cc2cnc[nH]2)C(=O)N[C@@H](CC(C)C)C(=O)N2CCC[C@H]2C(=O)N[C@@H](Cc2c[nH]c3ccccc23)C(=O)N[C@@H](CO)C(=O)N[C@@H](Cc2c[nH]c3ccccc23)C(=O)N1C [Example 7018] ({CH2CO}-[hhPhe][NMeA]NPHLPWSW[NMeNle][NMeNle]RCG-NH2; thioether N-14) | – | – | – | IC50 ([1]; cell binding assay, cell line not given, value given instead of cluster, read-out: CBA IC50 value): 228 nM; IC50 (Human PD-L1/PD-1; value given instead of cluster, read-out: HTRF IC50 value): 13.6 nM |
